Results from ChEMBL document CHEMBL1140338, “Range and sensitivity as descriptors of molecular property spaces in dynamic QSAR analyses” (J Med Chem, 2005).

What was measured:
[1] = Binding affinity for alpha 1b adrenoceptor
[2] = Binding affinity for alpha 1a adrenoceptor
[3] = Binding affinity for alpha 1d adrenoceptor

SMILES	pK [1]	pK [2]	pK [3]
COc1cc2c(cc1OC)CN(c1cc(N)c3cc(OC)c(OC)cc3n1)CC2	10.1	10.4	10.4
C=Cc1sc2ccc(Cl)c3c2c1CN(C)CC3	7.2	7.36	8.28
C[C@H](Cc1cc2c(c(C(N)=O)c1)N(CCCO)CC2)NCCOc1ccccc1OCC(F)(F)F	7.7	10.4	8.7
CCC1=C(C(N)=O)[C@H](c2ccc([N+](=O)[O-])cc2)C(C(=O)NCCCN2CCC(c3ccccc3)(c3ccccc3)CC2)=C(COCCN)N1	6.49	9.19	6.4
COc1c(C)c(C)c(O)c(C)c1CN(C)CCOc1cc(C)c(O)cc1C(C)C	8.92	9.4	8.92
COc1cc2c(cc1O)C1Cc3ccc(OC)c(O)c3CN1CC2 (stereo unspecified)	6.44	6.21	7.6
COc1cccc(OC)c1OCCNCC1CSc2ccccc2O1 (stereo unspecified)	8.4	9.7	9.4
COc1cccc(OC)c1OCCNCC1COc2ccccc2O1 (stereo unspecified)		9.8	9.6
COc1ccccc1N1CCN(CCN(C(=O)C2CCCCC2)c2ccccn2)CC1	6.73	7.24	7.2
COc1cc2nc(N(C)CCCNC(=O)C3CCCO3)nc(N)c2cc1OC (stereo unspecified)	8	8	8.5
COC(=O)[C@H]1[C@H]2C[C@H]3c4[nH]c5ccccc5c4CCN3C[C@@H]2CC[C@@H]1O	6.29	6.85	6.6
COC(=O)C1=C(C)NC(C)=C(C(=O)NCCCN2CCC(c3ccccc3)(c3ccccc3)CC2)C1c1ccc([N+](=O)[O-])cc1 (stereo unspecified)	7.89	9.64	7.18
COc1cc2nc(N3CCN(C(=O)C4COc5ccccc5O4)CC3)nc(N)c2cc1OC (stereo unspecified)	9		8.4
COC(=O)C1=C(C)NC(C)=C(C(=O)OCCCN2CCC(c3ccccc3)(c3ccccc3)CC2)[C@H]1c1cccc([N+](=O)[O-])c1	7.26	9.82	7
COc1ccccc1N1CCN(CCCNc2c(C)c(=O)n(C)c(=O)n2C)CC1	7.4	9.2	8
Cc1ccc(N(CC2=NCCN2)c2cccc(O)c2)cc1	8.1	8.8	8.1
COc1cccc2c1CC[C@H]1CN(CCn3c(=O)[nH]c4c(sc5cccnc54)c3=O)C[C@@H]21	8.16	9.66	9.01
CC1=C(C(N)=O)[C@H](c2ccc([N+](=O)[O-])cc2)C(C(=O)NCCCCN2CCC(c3ccccc3)(c3ccccc3)CC2)=C(C)N1	6.48	8.72	6.4
COc1cc2nc(N3CCN(C(=O)C4CCCO4)CC3)nc(N)c2cc1OC (stereo unspecified)		8.2	8.6
COc1ccccc1N1CCN(CCN2C(=O)CC3(CCCC3)CC2=O)CC1	6.2	6.6	8.2
Cc1c[nH]c(=O)n(CCCN2CCN(c3ccc(F)cc3OCC(F)(F)F)CC2)c1=O	7.1	9	7
CCCC(=O)N1CCCN(c2nc(N)c3cc(OC)c(OC)cc3n2)CC1	9	9.3	9
COc1cc2nc(N3CCN(C(=O)COc4c(OC)cccc4C(C)C)CC3)nc(N)c2cc1OC	9.52	8.72	8.59
COc1cc2nc(N3CCN(C(=O)c4ccco4)[C@H]4CCCC[C@H]43)nc(N)c2cc1OC	9.89	7.92	8.49
CC(C)(Cc1c[nH]c2ccc(Cl)cc12)NCCOc1ccccc1OCC1CC1	7.8	9.22	7.8
COc1ccccc1N1CCN(CCCCN2C(=O)c3ccccc3C2=O)CC1	7.82	8.7	9.1
O=C(CCCN1CCC2(CC1)C(=O)NCN2c1ccccc1)c1ccc(F)cc1	9.3	8.1	7.89
COc1ccccc1N1CCN(CCCNC(=O)c2cccc3c(=O)c(C)c(-c4ccccc4)oc23)CC1		9	8.6
O=C(NC1CCN(CCc2c[nH]c3ccccc23)CC1)c1ccccc1	7.4	8.4	6.8
C[C@H](CN1CCN(c2cc(F)c(F)cc2F)CC1)N1C(=O)CC2(CCCC2)CC1=O	6.72	6.53	8.8
